Measurements as given in ChEMBL document CHEMBL5303763, “Data for DCP probe BI-3802” (2023).
Active and inactive are the calls of the source. No cut-off for these calls is given here.

Experiments:
[1] = target: Androgen receptor (Homo sapiens) (UniProt P10275); assay: ANDROGEN/H Eurofins SafetyScreen44 (BI); conditions: Compound concentration 10.0 uM
[2] = target: Cannabinoid receptor 2 (Homo sapiens) (UniProt P34972); assay: CB2/PERIPH/H Eurofins SafetyScreen44 (BI); conditions: Compound concentration 10.0 uM
[3] = target: GABA-A receptor; anion channel (Rattus norvegicus) (UniProt O09028+P15431+P18506+P18508+P19969+P20236+P23574+P23576+P28471+P28473+P30191+P62813+P63079+P63138+Q91ZM7+Q9ES14); assay: BZD/CENTR/R Eurofins SafetyScreen44 (BI); format: protein-complex assay; conditions: Compound concentration 10.0 uM
[4] = target: Beta-1 adrenergic receptor (Homo sapiens) (UniProt P08588); assay: BETA1/HUM Eurofins SafetyScreen44 (BI); conditions: Compound concentration 10.0 uM
[5] = target: Angiotensin-converting enzyme (Homo sapiens) (UniProt P12821); assay: ACE(HU_AMTCH400) Eurofins SafetyScreen44 (BI); conditions: Compound concentration 10.0 uM
[6] = target: Delta-type opioid receptor (Homo sapiens) (UniProt P41143); assay: DELTA2/H Eurofins SafetyScreen44 (BI); conditions: Compound concentration 10.0 uM
[7] = target: Alpha-1A adrenergic receptor (Homo sapiens) (UniProt P35348); assay: ALPHA1AH_ANTAG Eurofins SafetyScreen44 (BI); conditions: filed as antagonist, Compound concentration 10.0 uM
[8] = target: hERG (KCNH2) (Homo sapiens, UniProt Q12809); assay: HERG_DOFETILIDE Eurofins SafetyScreen44 (BI); conditions: probe [3H] Dofetilide, compound concentration 10 uM, read-out: % Ctrl
[9] = target: Sodium-dependent noradrenaline transporter (Homo sapiens) (UniProt P23975); assay: NEUP/H Eurofins SafetyScreen44 (BI); conditions: Compound concentration 10.0 uM
[10] = target: 5-hydroxytryptamine receptor 2A (Homo sapiens) (UniProt P28223); assay: 5HT2AH_AGON Eurofins SafetyScreen44 (BI); conditions: filed as agonist, Compound concentration 10.0 uM
[11] = target: Glutamate NMDA receptor (Rattus norvegicus) (UniProt P35439+Q00959+Q00960+Q00961+Q62645+Q8VHN2+Q9R1M7); assay: NMDA/R Eurofins SafetyScreen44 (BI); format: protein-complex assay; conditions: Compound concentration 10.0 uM
[12] = target: Sodium-dependent dopamine transporter (Homo sapiens) (UniProt Q01959); assay: DATRANS/HUM Eurofins SafetyScreen44 (BI); conditions: Compound concentration 10.0 uM
[13] = target: Endothelin-1 receptor (Homo sapiens) (UniProt P25101); assay: ETA/H Eurofins SafetyScreen44 (BI); conditions: Compound concentration 10.0 uM
[14] = target: 3',5'-cyclic-AMP phosphodiesterase 4D (Homo sapiens) (UniProt Q08499); assay: PDE4D2 Eurofins SafetyScreen44 (BI); conditions: Compound concentration 10.0 uM
[15] = target: Adenosine receptor A2a (Homo sapiens) (UniProt P29274); assay: A2A/H Eurofins SafetyScreen44 (BI); conditions: filed as antagonist, Compound concentration 10.0 uM
[16] = target: Histamine H2 receptor (Homo sapiens) (UniProt P25021); assay: H2/APT/HS Eurofins SafetyScreen44 (BI); conditions: filed as antagonist, Compound concentration 10.0 uM
[17] = target: Muscarinic acetylcholine receptor M3 (Homo sapiens) (UniProt P20309); assay: M3/H Eurofins SafetyScreen44 (BI); conditions: Compound concentration 10.0 uM
[18] = target: Muscarinic acetylcholine receptor M1 (Homo sapiens) (UniProt P11229); assay: M1/H Eurofins SafetyScreen44 (BI); conditions: Compound concentration 10.0 uM
[19] = target: D(2) dopamine receptor (Homo sapiens) (UniProt P14416); assay: D2SH_AGON Eurofins SafetyScreen44 (BI); conditions: filed as agonist, Compound concentration 10.0 uM
[20] = target: Neuronal acetylcholine receptor; alpha4/beta2 (Homo sapiens) (UniProt P17787+P43681); assay: N_NEURO_A4B2 Eurofins SafetyScreen44 (BI); format: protein-complex assay; conditions: filed as agonist, Compound concentration 10.0 uM
[21] = target: cGMP-inhibited 3',5'-cyclic phosphodiesterase 3A (Homo sapiens) (UniProt Q14432); assay: PDE3A Eurofins SafetyScreen44 (BI); conditions: Compound concentration 10.0 uM
[22] = target: MAO-A (Amine oxidase [flavin-containing] A) (Rattus norvegicus, UniProt P21396); assay: MAO-A_ANTAG Eurofins SafetyScreen44 (BI); design: scale not given: the % may be the effect or the level left; conditions: compound concentration 10 uM, read-out: % Ctrl
[23] = target: Glucocorticoid receptor (Homo sapiens) (UniProt P04150); assay: GCORTICOID/H Eurofins SafetyScreen44 (BI); conditions: Compound concentration 10.0 uM
[24] = target: T1, 5-hydroxytryptamine receptor 3A (Homo sapiens) (UniProt P46098); assay: 5HT3/H Eurofins SafetyScreen44 (BI); conditions: Compound concentration 10.0 uM
T1 sequence (whole entry): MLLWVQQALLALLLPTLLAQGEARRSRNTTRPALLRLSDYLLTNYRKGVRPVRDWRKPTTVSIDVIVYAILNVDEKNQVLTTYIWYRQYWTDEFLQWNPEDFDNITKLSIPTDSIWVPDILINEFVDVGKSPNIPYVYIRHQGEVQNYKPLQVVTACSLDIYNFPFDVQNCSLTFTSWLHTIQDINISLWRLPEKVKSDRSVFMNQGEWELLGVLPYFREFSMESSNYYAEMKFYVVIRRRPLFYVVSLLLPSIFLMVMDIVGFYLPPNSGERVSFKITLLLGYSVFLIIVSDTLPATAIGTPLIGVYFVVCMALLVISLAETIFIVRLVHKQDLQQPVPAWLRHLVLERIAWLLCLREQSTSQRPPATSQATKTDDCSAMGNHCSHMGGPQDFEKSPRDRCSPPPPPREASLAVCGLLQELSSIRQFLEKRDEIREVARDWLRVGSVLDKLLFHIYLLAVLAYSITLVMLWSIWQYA

[25] = target: B-cell lymphoma 6 protein (Homo sapiens, UniProt P41182); assay: BCL6:BCOR ULight TR-FRET
[26] = target: 5-hydroxytryptamine receptor 2B (Homo sapiens) (UniProt P41595); assay: 5HT2B/H AG Eurofins SafetyScreen44 (BI); conditions: filed as agonist, Compound concentration 10.0 uM
[27] = target: voltage-gated Na+ channel (site 2) (Rattus norvegicus, UniProt F1LQQ7+O08562+O88420+O88457+P04774+P04775+P08104+P15389+P15390+Q62968); assay: NA+/SITE2/R Eurofins SafetyScreen44 (BI); format: protein assay; conditions: rat brain, probe [3H]batrachotoxinin, compound concentration 10 uM, read-out: % Ctrl
[28] = target: T2, Alpha-2A adrenergic receptor (Homo sapiens) (UniProt P08913); assay: ALPHA2A/HU Eurofins SafetyScreen44 (BI); conditions: Compound concentration 10.0 uM
T2 sequence (whole entry): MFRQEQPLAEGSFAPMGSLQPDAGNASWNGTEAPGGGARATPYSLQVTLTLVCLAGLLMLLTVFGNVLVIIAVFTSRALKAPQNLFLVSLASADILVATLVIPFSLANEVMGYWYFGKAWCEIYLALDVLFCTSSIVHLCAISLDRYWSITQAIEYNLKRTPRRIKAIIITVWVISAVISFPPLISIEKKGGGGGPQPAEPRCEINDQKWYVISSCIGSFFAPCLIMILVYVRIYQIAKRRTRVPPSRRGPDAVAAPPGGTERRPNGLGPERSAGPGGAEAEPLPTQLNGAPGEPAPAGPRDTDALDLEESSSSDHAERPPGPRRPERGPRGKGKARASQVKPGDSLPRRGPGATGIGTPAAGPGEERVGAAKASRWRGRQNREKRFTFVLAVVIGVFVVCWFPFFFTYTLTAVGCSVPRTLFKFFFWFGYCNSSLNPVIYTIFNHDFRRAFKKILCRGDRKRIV

MAO-A (Amine oxidase [flavin-containing] A), sequence (P21396 whole entry): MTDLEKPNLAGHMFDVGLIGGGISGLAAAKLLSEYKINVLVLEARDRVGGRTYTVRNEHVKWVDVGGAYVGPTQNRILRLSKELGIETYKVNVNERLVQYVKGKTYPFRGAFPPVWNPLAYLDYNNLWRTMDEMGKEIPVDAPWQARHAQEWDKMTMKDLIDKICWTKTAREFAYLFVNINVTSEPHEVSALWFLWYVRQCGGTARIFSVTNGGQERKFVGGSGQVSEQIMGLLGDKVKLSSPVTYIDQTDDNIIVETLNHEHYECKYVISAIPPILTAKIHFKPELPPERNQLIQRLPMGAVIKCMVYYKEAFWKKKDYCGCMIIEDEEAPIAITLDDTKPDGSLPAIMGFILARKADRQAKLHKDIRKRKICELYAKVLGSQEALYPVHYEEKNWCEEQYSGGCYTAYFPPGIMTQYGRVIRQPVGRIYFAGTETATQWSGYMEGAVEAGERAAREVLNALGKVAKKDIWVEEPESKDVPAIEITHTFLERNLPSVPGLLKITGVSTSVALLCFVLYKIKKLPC
Delta-type opioid receptor (Homo sapiens), sequence (P41143 whole entry): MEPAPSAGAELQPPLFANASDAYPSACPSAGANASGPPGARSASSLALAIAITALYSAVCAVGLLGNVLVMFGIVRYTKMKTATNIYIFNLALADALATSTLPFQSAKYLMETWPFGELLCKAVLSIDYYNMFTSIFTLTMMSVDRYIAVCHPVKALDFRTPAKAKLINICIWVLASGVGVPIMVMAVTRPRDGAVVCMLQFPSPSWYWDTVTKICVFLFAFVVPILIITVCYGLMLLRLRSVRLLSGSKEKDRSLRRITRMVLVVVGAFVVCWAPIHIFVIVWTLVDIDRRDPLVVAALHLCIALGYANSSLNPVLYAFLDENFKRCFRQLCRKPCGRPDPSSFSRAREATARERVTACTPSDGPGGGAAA
D(2) dopamine receptor (Homo sapiens), sequence (P14416 whole entry): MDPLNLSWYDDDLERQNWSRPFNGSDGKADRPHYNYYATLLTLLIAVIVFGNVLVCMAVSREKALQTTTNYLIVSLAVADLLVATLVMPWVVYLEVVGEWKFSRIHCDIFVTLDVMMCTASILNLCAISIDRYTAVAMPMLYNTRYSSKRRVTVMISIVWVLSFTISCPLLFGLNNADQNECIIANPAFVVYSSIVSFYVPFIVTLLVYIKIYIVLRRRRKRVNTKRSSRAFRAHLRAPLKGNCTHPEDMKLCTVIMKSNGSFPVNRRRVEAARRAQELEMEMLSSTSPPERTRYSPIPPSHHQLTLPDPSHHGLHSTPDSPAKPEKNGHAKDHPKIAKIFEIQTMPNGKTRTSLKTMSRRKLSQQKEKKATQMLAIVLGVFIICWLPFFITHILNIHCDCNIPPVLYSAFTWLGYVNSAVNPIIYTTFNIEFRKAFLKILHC
5-hydroxytryptamine receptor 2B (Homo sapiens), sequence (P41595 whole entry): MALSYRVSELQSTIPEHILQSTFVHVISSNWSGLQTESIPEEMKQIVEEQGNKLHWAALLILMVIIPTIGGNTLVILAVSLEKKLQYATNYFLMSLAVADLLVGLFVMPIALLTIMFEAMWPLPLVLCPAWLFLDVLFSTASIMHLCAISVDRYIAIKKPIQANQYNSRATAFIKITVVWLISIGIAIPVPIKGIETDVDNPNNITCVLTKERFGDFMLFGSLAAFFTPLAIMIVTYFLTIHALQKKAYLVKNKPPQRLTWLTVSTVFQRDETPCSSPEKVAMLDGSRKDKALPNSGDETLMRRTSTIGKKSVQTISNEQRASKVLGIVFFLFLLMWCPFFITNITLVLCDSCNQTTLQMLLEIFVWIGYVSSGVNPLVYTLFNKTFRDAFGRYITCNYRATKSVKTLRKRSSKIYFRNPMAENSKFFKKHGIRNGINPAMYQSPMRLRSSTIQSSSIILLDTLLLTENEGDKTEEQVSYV
Muscarinic acetylcholine receptor M1 (Homo sapiens), sequence (P11229 whole entry): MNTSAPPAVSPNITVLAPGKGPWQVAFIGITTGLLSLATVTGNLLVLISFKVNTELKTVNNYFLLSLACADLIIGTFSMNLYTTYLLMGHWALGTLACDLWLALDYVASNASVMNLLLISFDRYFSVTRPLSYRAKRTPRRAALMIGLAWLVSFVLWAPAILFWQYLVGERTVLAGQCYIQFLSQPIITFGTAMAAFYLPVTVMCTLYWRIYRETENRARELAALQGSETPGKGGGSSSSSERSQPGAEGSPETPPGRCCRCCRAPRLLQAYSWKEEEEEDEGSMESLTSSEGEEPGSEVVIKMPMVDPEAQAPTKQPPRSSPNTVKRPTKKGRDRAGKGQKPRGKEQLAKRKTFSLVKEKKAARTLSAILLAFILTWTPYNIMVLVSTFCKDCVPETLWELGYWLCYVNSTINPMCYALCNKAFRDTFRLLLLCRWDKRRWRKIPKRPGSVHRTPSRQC
Endothelin-1 receptor (Homo sapiens), sequence (P25101 whole entry): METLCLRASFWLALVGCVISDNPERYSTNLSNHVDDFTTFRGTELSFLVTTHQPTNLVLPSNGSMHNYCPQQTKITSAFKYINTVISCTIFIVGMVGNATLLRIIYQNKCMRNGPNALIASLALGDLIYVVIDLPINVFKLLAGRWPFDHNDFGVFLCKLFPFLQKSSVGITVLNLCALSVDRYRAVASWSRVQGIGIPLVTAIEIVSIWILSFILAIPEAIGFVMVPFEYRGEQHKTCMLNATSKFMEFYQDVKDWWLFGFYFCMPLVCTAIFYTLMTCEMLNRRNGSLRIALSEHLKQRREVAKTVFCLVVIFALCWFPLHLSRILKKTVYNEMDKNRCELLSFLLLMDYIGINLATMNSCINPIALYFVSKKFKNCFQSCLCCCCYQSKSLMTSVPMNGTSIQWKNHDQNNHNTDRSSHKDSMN
Angiotensin-converting enzyme (Homo sapiens), sequence (P12821 whole entry): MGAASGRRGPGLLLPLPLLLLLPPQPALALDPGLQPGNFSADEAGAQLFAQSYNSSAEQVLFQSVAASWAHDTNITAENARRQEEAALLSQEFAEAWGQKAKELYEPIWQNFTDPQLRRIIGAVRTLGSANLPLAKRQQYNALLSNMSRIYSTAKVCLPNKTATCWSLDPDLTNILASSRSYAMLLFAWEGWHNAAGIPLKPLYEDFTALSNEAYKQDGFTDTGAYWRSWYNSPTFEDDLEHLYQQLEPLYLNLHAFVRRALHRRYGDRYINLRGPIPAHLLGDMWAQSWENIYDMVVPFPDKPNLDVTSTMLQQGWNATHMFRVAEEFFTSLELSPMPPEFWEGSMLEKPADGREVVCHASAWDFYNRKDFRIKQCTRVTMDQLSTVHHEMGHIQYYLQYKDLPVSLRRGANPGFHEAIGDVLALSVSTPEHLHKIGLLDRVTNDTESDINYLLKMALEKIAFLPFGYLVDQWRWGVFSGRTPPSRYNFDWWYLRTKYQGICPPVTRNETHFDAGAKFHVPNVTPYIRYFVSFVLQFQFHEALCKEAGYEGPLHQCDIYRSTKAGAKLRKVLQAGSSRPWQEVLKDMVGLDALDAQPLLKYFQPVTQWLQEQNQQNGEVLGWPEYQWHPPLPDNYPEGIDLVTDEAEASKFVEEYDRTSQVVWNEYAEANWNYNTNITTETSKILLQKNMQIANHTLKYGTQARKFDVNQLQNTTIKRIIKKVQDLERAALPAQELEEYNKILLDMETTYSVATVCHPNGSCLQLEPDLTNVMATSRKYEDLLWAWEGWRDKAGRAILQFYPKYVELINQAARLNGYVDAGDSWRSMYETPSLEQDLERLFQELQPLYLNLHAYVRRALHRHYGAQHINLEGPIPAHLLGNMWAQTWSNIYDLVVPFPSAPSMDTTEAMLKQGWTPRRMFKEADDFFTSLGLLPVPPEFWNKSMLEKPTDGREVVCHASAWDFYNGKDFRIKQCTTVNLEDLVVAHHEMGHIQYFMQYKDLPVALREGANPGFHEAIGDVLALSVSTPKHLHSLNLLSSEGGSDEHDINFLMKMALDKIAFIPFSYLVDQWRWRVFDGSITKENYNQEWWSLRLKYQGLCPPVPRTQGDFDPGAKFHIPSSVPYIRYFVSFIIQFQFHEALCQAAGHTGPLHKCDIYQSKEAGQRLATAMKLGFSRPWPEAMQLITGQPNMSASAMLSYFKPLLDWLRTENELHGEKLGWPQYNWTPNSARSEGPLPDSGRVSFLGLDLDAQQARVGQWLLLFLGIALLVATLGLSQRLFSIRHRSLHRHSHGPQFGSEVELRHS
Sodium-dependent dopamine transporter (Homo sapiens), sequence (Q01959 whole entry): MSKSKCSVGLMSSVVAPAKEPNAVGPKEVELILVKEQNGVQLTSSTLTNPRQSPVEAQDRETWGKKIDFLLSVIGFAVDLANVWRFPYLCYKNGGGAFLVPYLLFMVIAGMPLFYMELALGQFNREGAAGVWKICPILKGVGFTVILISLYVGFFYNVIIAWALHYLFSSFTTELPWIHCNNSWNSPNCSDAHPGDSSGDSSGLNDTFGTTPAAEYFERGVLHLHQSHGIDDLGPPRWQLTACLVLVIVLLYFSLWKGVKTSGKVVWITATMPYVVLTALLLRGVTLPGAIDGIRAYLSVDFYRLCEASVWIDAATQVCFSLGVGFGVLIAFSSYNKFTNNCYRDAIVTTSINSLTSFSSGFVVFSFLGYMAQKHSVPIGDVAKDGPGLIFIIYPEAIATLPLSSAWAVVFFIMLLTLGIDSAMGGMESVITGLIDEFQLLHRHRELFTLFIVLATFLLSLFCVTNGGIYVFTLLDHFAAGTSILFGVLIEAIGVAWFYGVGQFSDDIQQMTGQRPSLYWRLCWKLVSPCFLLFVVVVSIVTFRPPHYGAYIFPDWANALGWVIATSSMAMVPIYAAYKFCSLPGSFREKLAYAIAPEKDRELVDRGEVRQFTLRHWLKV
Histamine H2 receptor (Homo sapiens), sequence (P25021 whole entry): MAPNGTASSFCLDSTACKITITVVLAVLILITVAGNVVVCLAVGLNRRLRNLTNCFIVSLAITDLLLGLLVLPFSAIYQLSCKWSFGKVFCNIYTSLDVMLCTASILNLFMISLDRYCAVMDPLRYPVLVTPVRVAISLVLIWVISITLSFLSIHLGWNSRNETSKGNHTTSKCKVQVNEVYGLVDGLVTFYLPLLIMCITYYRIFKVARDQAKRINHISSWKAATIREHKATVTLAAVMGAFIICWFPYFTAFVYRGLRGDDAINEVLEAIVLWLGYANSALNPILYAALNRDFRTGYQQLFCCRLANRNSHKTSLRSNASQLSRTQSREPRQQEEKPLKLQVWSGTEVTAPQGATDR

Row | SMILES | residual activity [1] [%] | residual activity [2] [%] | residual activity [3] [%] | residual activity [4] [%] | residual activity [5] [%] | residual activity [6] [%] | residual activity [7] [%] | activity at 10 µM [8] | residual activity [9] [%] | residual activity [10] [%] | residual activity [11] [%] | residual activity [12] [%] | residual activity [13] [%] | residual activity [14] [%] | residual activity [15] [%] | residual activity [16] [%] | residual activity [17] [%] | residual activity [18] [%] | residual activity [19] [%] | residual activity [20] [%] | further results
1 | C[C@@H]1C[C@H](C)CN(c2ncc(Cl)c(Nc3ccc4c(c3)cc(OC(C)(C)C(=O)O)c(=O)n4C)n2)C1 | 104 | 103 | 147 | 99 | 111 | 97 | 99 | 95% (not active) | 102 | 125 | 88 | 100 | 111 | 87 | 107 | 121 | 111 | 128 | 86 | 106 | residual activity [21]: 99%; activity at 10 µM [22]: 96% (not active); residual activity [23]: 97%; residual activity [24]: 95%; IC50 [25]: 10.2 µM (not active); residual activity [26]: 159%; activity at 10 µM [27]: 88% (not active); residual activity [28]: 104%
2 | CNC(=O)COc1cc2cc(Nc3nc(N4C[C@H](C)C[C@H](C)C4)ncc3Cl)ccc2n(C)c1=O | 103 | 96 | 97 | 99 | 106 | 100 | 110 | 76% (not active) | 99 | 112 | 78 | 88 | 100 | 100 | 92 | 110 | 110 | 93 | 115 | 107 | residual activity [21]: 95%; activity at 10 µM [22]: 89% (not active); residual activity [23]: 99%; residual activity [24]: 101%; IC50 [25]: ≤ 0.003 µM (active); residual activity [26]: 12%; activity at 10 µM [27]: 114% (not active); residual activity [28]: 111%
